Source: US12679846B2, “Xanthone compound having excellent anticancer effect” (KOREA INSTITUTE OF OCEAN SCIENCE & TECHNOLOGY, priority 2021, dated 2026)

Assays:
HCT-15 (colon cancer) = assay: Cytotoxicity test against cancer cell lines (SRB assay), HCT-15; format: cell-based; conditions: Homo sapiens, HCT-15, 48 hours
Method: (§1) Human cancer cell lines HCT-15 (colon cancer), NUGC-3 (stomach cancer), NCI-H23 ([…]), ACHN (kidney cancer), PC-3 (prostate cancer), and MDA-MB-231 (breast cancer) were purchased and used from American Type Culture Collection (Manassas, VA).
(§2) Each of the cancer cell lines was cultured in RPMI 1640 supplemented with 10% fetal bovine serum (FBS) at 37° C. in a humidified atmosphere of 5% CO2. Growth inhibition was evaluated for human cancer cell lines using a sulforhodamine B (SRB) assay. The cells were dispensed in a 96-well plate at a density of 8000 cells/well, and the next day, the cells were treated with each of Examples 1 and 2 (0.1% DMSO as vehicle control), and a positive control group was treated with Adriamycin. The cells were cultured for 48 hours, and then each culture medium was fixed with 50% trichloroacetic acid ([…]) and stained using 0.4% sulforhodamine B in 1% acetic acid. An unbound dye was washed with 1% acetic acid, and the dye bound to a protein was extracted with 10 mM Tris base (pH 10.5) to determine the optical density. Absorbance at 540 nm was determined using a VersaMax microplate reader (Molecular Devices, LLC, Sunnyvale, CA, USA). GI50 values were calculated using GraphPad Prism 4.0 software (GraphPad Software, Inc., San Diego, CA, USA), and the results are described in Table 2 below.

NUGC-3 (stomach cancer) = assay: Cytotoxicity test against cancer cell lines (SRB assay), NUGC-3; format: cell-based; conditions: Homo sapiens, NUGC-3, 48 hours
Method: as §1, §2

NCI-H23 = assay: Cytotoxicity test against cancer cell lines (SRB assay), NCI-H23; format: cell-based; conditions: Homo sapiens, NCI-H23, 48 hours
Method: as §1, §2

ACHN (kidney cancer) = assay: Cytotoxicity test against cancer cell lines (SRB assay), ACHN; format: cell-based; conditions: Homo sapiens, 48 hours
Method: as §1, §2

PC-3 (prostate cancer) = assay: Cytotoxicity test against cancer cell lines (SRB assay), PC-3; format: cell-based; conditions: Homo sapiens, PC-3, 48 hours
Method: as §1, §2

[1] = tested on: MDA-MB-231 (breast cancer); assay: Cytotoxicity test against cancer cell lines (SRB assay), MDA-MB-231; format: cell-based; conditions: Homo sapiens, MDA-MB-231, 48 hours
Method: as §1, §2

[2] = tested on: various types of cancer cell lines; assay: Cytotoxicity test (SRB assay), summary over the six cancer cell lines; format: cell-based; conditions: Homo sapiens; range over six cancer cell lines; read-out: GI50 values ranging (over the cell lines of Table 2)
Method: as §1, §2

[3] = tested on: human-derived breast cancer cell line MDA-MB-231; assay: Anticancer effect in animal test on breast cancer cell line (MDA-MB-231) transplanted in nude mice; format: in vivo, BALB/C nude mouse; conditions: for Inhibition rate (tumor size, vs Control group); tumor growth inhibition: day 23 (last day)
Method: Cancer cells (human-derived breast cancer cell line MDA-MB-231) that had been frozen-stored in liquid nitrogen were thawed and then cultured. The cells were cultured in a CO2 incubator (NuAire, USA) at a temperature of 37° C. and a CO2 concentration of 5%.
Lineage and Sex: Specific pathogen-free (SPF) BALB/C strain and female nude mouse (Orient Bio Co., Ltd.)
Week-old: Age at time of obtainment—5 week-old/Age at time of cancer cell transplantation—6 week-old/Age at time of drug administration—7 week-old
On the final day of cancer cell culture, all cancer cells were collected and counted, and the cell concentration was adjusted to 3×10^7 cells/ml using serum free media. 0.3 ml (9×10^6 cells/mouse) of the cell culture medium adjusted in this way per mouse was injected subcutaneously in the axillary area between the right scapular region and chest wall.
Calculation of Tumor Size Changes
After cancer cell transplantation, until the 23rd day since the average tumor size for each group reached about 14.2 mm^3, tumor sizes were measured a total 11 times in three directions using Vernier calipers for each individual, and then expressed in Equation of length×width×height/2.
On the 23rd day after the start of drug administration, all subjects were killed using CO2 gas, and the tumors were separated, weighed on chemical balance, and photographed.
Statistical analysis was performed using GraphPad Prism software from GraphPad Software. Changes in body weight and tumor volume according to a day were analyzed using a Bonferroni multiple comparison test after two-way ANOVA, and tumor weight on the final day was analyzed using a Dunnett's multiple comparison test after one-way ANOVA.

[4] = General symptoms and autopsy findings in MDA-MB-231 cancer cell transplant nude mice; conditions: 2 mg/kg repeatedly intraperitoneally
Method: Preparation and Administration of Experimental Substances Samples were prepared for administration in Examples 1 and 2. Each of the two compounds prepared above was dissolved in dimethylacetamide (DMAC) to make 0.1 mg/ml of a stock, and then 10% tween80 and 20% HPβCD 80% were added stepwise to a 10% DMAC stock to be prepared at a final concentration of 0.01 mg/ml, and as a comparison group for comparison of anticancer effects, doxorubicin was dissolved in physiological saline to prepare an experimental substance at a concentration of 0.2 mg/ml. The prepared experimental substance was repeatedly administered intraperitoneally total 18 times by 0.2 ml per 20 g of the mouse, 5 times a week on a dosing schedule (days 0 to 4, 7 to 11, 14 to 19, 21 to 23).

[5] = day 2, 0.1 mg/kg intraperitoneally
[6] = day 4, 0.1 mg/kg intraperitoneally
[7] = day 7, 0.1 mg/kg intraperitoneally
[8] = day 9, 0.1 mg/kg intraperitoneally
[9] = day 11, 0.1 mg/kg intraperitoneally
[10] = day 14, 0.1 mg/kg intraperitoneally
[11] = day 16, 0.1 mg/kg intraperitoneally
[12] = day 18, 0.1 mg/kg intraperitoneally
[13] = day 21, 0.1 mg/kg intraperitoneally
[14] = day 23, 0.1 mg/kg intraperitoneally
[15] = day 2, 2 mg/kg intraperitoneally
[16] = day 4, 2 mg/kg intraperitoneally
[17] = day 7, 2 mg/kg intraperitoneally
[18] = day 9, 2 mg/kg intraperitoneally
[19] = day 11, 2 mg/kg intraperitoneally
[20] = day 14, 2 mg/kg intraperitoneally
[21] = day 16, 2 mg/kg intraperitoneally
[22] = day 18, 2 mg/kg intraperitoneally
[23] = day 21, 2 mg/kg intraperitoneally
[24] = day 23, 2 mg/kg intraperitoneally

Compound: COc1ccc2c(=O)c3c(O)c4c(c(O)c3oc2c1OC)CCc1c(OC2OC(C)C(OC)C(OC)C2OC)c2c(c(O)c1-4)C(=O)OC(C)C2 (stereo not shown) [Example 2, 8,15,16-trihydroxy-10,11-dimethoxy-3-methyl-5-((3,4,5-trimethoxy-6-methyltetrahydro-2H-pyran-2-yl)oxy)-3,4,6,7-tetrahydropyrano[4′,3′:6,7]naphtho[1,2-b]xanthene-1,14-dione]
- GI50 (HCT-15 (colon cancer)): 5 nM
- GI50 (NUGC-3 (stomach cancer)): 3 nM
- GI50 (NCI-H23): 4 nM
- GI50 (ACHN (kidney cancer)): 5 nM
- GI50 (PC-3 (prostate cancer)): 3 nM
- GI50 [1]: 4 nM
- GI50 [2]: 3 to 5 nM
- Tumor size (Δt = Vt − Vo) ([3]; day 0, 0.1 mg/kg intraperitoneally): 0 mm^3
- Inhibition rate (tumor size, vs Control group) [3, 5]: 53.2%
- Tumor size (Δt = Vt − Vo) [3, 5]: 5.8 mm^3
- Inhibition rate (tumor size, vs Control group) [3, 6]: 59.3%
- Tumor size (Δt = Vt − Vo) [3, 6]: 10.1 mm^3
- Inhibition rate (tumor size, vs Control group) [3, 7]: 51.6%
- Tumor size (Δt = Vt − Vo) [3, 7]: 23.6 mm^3
- Inhibition rate (tumor size, vs Control group) [3, 8]: 49.3%
- Tumor size (Δt = Vt − Vo) [3, 8]: 30.1 mm^3
- Inhibition rate (tumor size, vs Control group) [3, 9]: 43.3%
- Tumor size (Δt = Vt − Vo) [3, 9]: 53.1 mm^3
- Inhibition rate (tumor size, vs Control group) [3, 10]: 50.7%
- Tumor size (Δt = Vt − Vo) [3, 10]: 96.9 mm^3
- Inhibition rate (tumor size, vs Control group) [3, 11]: 57.9%
- Tumor size (Δt = Vt − Vo) [3, 11]: 155.5 mm^3
- Inhibition rate (tumor size, vs Control group) [3, 12]: 46.1%
- Tumor size (Δt = Vt − Vo) [3, 12]: 297 mm^3
- Inhibition rate (tumor size, vs Control group) [3, 13]: 54.6%
- Tumor size (Δt = Vt − Vo) [3, 13]: 447.7 mm^3
- Inhibition rate (tumor size, vs Control group); tumor growth inhibition ([3]; 0.1 mg/kg intraperitoneally): 56.7%
- Inhibition rate (tumor weight, vs Control group); reduction in tumor weight [3, 14]: 52.8%
- Tumor size (Δt = Vt − Vo) [3, 14]: 593.3 mm^3
- Tumor weight on final day [3, 14]: 1033.4 mg

Compound: COc1cccc2c1C(=O)c1c(O)c3c(c(O)c1C2=O)C[C@@](O)(C(=O)CO)C[C@@H]3O[C@H]1C[C@H](N)[C@H](O)[C@H](C)O1 [doxorubicin]
- GI50 (HCT-15 (colon cancer)): 153 nM
- GI50 (NUGC-3 (stomach cancer)): 145 nM
- GI50 (NCI-H23): 139 nM
- GI50 (ACHN (kidney cancer)): 151 nM
- GI50 (PC-3 (prostate cancer)): 137 nM
- GI50 [1]: 146 nM
- Tumor size (Δt = Vt − Vo) ([3]; day 0, 2 mg/kg intraperitoneally): 0 mm^3
- Inhibition rate (tumor size, vs Control group) [3, 15]: 65.3%
- Tumor size (Δt = Vt − Vo) [3, 15]: 4.3 mm^3
- Inhibition rate (tumor size, vs Control group) [3, 16]: 64%
- Tumor size (Δt = Vt − Vo) [3, 16]: 8.9 mm^3
- Inhibition rate (tumor size, vs Control group) [3, 17]: 67.8%
- Tumor size (Δt = Vt − Vo) [3, 17]: 15.7 mm^3
- Inhibition rate (tumor size, vs Control group) [3, 18]: 67.9%
- Tumor size (Δt = Vt − Vo) [3, 18]: 19.1 mm^3
- Inhibition rate (tumor size, vs Control group) [3, 19]: 70.4%
- Tumor size (Δt = Vt − Vo) [3, 19]: 27.7 mm^3
- Inhibition rate (tumor size, vs Control group) [3, 20]: 80.5%
- Tumor size (Δt = Vt − Vo) [3, 20]: 38.3 mm^3
- Inhibition rate (tumor size, vs Control group) [3, 21]: 83%
- Tumor size (Δt = Vt − Vo) [3, 21]: 62.7 mm^3
- Inhibition rate (tumor size, vs Control group) [3, 22]: 83.3%
- Tumor size (Δt = Vt − Vo) [3, 22]: 92 mm^3
- Inhibition rate (tumor size, vs Control group) [3, 23]: 77.5%
- Tumor size (Δt = Vt − Vo) [3, 23]: 222.1 mm^3
- Inhibition rate (tumor size, vs Control group); tumor growth inhibition ([3]; 2 mg/kg intraperitoneally, listed as Comparison group, 2 mg/kg): 79%
- Inhibition rate (tumor size, vs Control group); tumor growth inhibition ([3]; 2 mg/kg intraperitoneally, listed as comparison group, 2 mg/kg): 79.0%
- Inhibition rate (tumor weight, vs Control group); reduction in tumor weight [3, 24]: 75.9%
- Tumor size (Δt = Vt − Vo) [3, 24]: 287.9 mm^3
- Tumor weight on final day [3, 24]: 527.9 mg
- General symptoms during administration and organs upon necropsy on the final day [4]: no abnormal findings
